Laboratory results taken from patent US8722849B2, “Polypeptides” (Novo Nordisk A/S, priority 2011, dated 2014).
Starred links: 1 amine or outer side, 2 acyl side, 3 side chain; linkers in the order of their positions; H or OH if unused. Positions of bridges follow the written chain, without caps; N, C: chain ends. Residues, ends and D or L forms follow the SMILES beside them. *: point of attachment. C20 diacid = O=C(O)CCCCCCCCCCCCCCCCCCC(=O)*; γGlu = O=C(O)[C@H](CCC(=O)[*:2])N[*:1]

Assays:
Type in all cases: cell-based
[1] = biological target: T1, human calcitonin receptor (Homo sapiens, UniProt P30988); test: Assay (II)a functional CRE-luciferase assay, human calcitonin receptor; details: Table 7; human calcitonin (CTa) receptor
T1 construct: expressed in transfected cells; host or cells: BHK570
T1 sequence (P30988 25-474): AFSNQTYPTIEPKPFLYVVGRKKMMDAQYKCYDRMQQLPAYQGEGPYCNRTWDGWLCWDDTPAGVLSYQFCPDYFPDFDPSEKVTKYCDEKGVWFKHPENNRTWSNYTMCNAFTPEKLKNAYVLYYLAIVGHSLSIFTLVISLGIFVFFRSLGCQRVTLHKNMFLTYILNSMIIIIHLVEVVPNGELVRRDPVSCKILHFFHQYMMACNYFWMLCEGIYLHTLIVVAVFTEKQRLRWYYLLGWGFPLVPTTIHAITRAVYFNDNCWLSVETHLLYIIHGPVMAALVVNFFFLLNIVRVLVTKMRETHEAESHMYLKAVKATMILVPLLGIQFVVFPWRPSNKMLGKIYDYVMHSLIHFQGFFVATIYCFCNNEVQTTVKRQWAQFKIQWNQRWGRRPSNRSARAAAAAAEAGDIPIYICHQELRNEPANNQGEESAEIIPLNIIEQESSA

[2] = biological target: T2, rat amylin 3(a) receptor (rat calcitonin(a) receptor + rat RAMP3) (Rattus norvegicus, UniProt P32214+Q9JJ73); test: Assay (II)b functional cAMP FlashPlate assay, rat amylin receptor; details: Table 11
T2 construct: expressed in transfected cells; host or cells: BHK tk'ts 13
T2 sequence (P32214 25-479 isoform P32214-2 limits assumed): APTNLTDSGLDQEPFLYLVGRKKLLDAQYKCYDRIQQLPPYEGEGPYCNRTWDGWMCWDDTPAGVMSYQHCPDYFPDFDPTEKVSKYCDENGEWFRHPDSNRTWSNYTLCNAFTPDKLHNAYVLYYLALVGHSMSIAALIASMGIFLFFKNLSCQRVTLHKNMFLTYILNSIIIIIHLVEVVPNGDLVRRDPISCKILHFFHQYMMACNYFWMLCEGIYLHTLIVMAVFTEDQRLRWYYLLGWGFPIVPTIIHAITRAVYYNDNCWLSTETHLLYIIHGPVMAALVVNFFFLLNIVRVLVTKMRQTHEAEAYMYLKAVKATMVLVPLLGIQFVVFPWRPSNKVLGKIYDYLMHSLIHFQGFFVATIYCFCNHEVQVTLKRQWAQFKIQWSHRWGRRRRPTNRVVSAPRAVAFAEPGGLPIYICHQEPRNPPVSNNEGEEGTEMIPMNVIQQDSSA
T2 sequence (Q9JJ73 23-147 partner): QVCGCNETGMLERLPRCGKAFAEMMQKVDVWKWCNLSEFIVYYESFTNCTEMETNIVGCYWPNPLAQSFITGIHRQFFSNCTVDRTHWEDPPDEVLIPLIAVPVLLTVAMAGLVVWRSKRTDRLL
In short: (§1)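 BHK tk'ts 13 cells transiently transfected with rat calcitonin(a) receptor, alone or with rat RAMP3 (amylin 3(a)), were stimulated 24 hours later with sample for 30 min in buffer containing IBMX. cAMP measured by competitive radioactive FlashPlate assay, scintillation read after 3 h detection incubation.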

[3] = biological target: T3, rat calcitonin (a) receptor (Rattus norvegicus, UniProt P32214); test: Assay (II)b functional cAMP FlashPlate assay, rat calcitonin receptor; details: Table 11; read-out: CTa receptor rat EC50
T3 construct: expressed in transfected cells; host or cells: BHK tk'ts 13
T3 sequence (P32214 25-479 isoform P32214-2 limits assumed): T2 sequence (P32214 25-479 isoform P32214-2 limits assumed)
In short: as §1

SMILES	EC50 [1] [nM]	EC50 [2] [nM]	EC50 [3] [nM]
CC[C@H](C)[C@H](NC(=O)[C@@H]1CCCN1C(=O)CNC(=O)[C@H](Cc1ccccc1)NC(=O)[C@H](CC(N)=O)NC(=O)[C@H](CC(N)=O)NC(=O)[C@H](CO)NC(=O)[C@H](CO)NC(=O)[C@H](CCCNC(=N)N)NC(=O)[C@H](Cc1c[nH]cn1)NC(=O)[C@H](CC(C)C)NC(=O)[C@H](Cc1ccccc1)NC(=O)[C@H](CCC(=O)O)NC(=O)[C@H](C)NC(=O)[C@H](CC(C)C)NC(=O)[C@H](CCCNC(=N)N)NC(=O)[C@H](CCC(N)=O)NC(=O)[C@@H](NC(=O)[C@H](C)NC(=O)[C@@H]1CSSC[C@H](NC(=O)[C@H](Cc2c[nH]cn2)NC(=O)CC[C@H](NC(=O)CCCCCCCCCCCCCCCCCCC(=O)O)C(=O)O)C(=O)N[C@@H](CC(N)=O)C(=O)N[C@@H]([C@@H](C)O)C(=O)N[C@@H](C)C(=O)N[C@@H]([C@@H](C)O)C(=O)N1)[C@@H](C)O)C(=O)N[C@@H](CC(C)C)C(=O)N1CCC[C@H]1C(=O)N1CCC[C@H]1C(=O)N[C@H](C(=O)N[C@@H](CC(N)=O)C(=O)N[C@H](C(=O)NCC(=O)N[C@@H](CO)C(=O)N[C@@H](CC(N)=O)C(=O)N[C@H](C(=O)N[C@@H](Cc1ccc(O)cc1)C(N)=O)[C@@H](C)O)C(C)C)[C@@H](C)O [Example 1, N-alpha-[(S)-4-Carboxy-4-(19-carboxynonadecanoylamino)butyryl]-[His1,Glu14,His17,Arg18]-pramlintide] ({C20 diacid-γGlu}-HCNTATCATQRLAEFLHRSSNNFGPILPPTNVGSNTY-NH2; disulfide 2-7 (inferred))	0.15	0.0645	0.379
CC[C@H](C)[C@H](NC(=O)[C@@H]1CCCN1C(=O)CNC(=O)[C@H](Cc1ccccc1)NC(=O)[C@H](CC(N)=O)NC(=O)[C@H](CC(N)=O)NC(=O)[C@H](CO)NC(=O)[C@H](CO)NC(=O)[C@H](Cc1c[nH]cn1)NC(=O)[C@H](CCCNC(=N)N)NC(=O)[C@H](CC(C)C)NC(=O)[C@H](Cc1ccccc1)NC(=O)[C@H](CCC(=O)O)NC(=O)[C@H](C)NC(=O)[C@H](CC(C)C)NC(=O)[C@H](CCCNC(=N)N)NC(=O)[C@H](CCC(N)=O)NC(=O)[C@@H](NC(=O)[C@H](C)NC(=O)[C@@H]1CSSC[C@H](NC(=O)[C@H](CCCCN)NC(=O)CC[C@H](NC(=O)CCCCCCCCCCCCCCCCCCC(=O)O)C(=O)O)C(=O)N[C@@H](CC(N)=O)C(=O)N[C@@H]([C@@H](C)O)C(=O)N[C@@H](C)C(=O)N[C@@H]([C@@H](C)O)C(=O)N1)[C@@H](C)O)C(=O)N[C@@H](CC(C)C)C(=O)N1CCC[C@H]1C(=O)N1CCC[C@H]1C(=O)N[C@H](C(=O)N[C@@H](CC(N)=O)C(=O)N[C@H](C(=O)NCC(=O)N[C@@H](CO)C(=O)N[C@@H](CC(N)=O)C(=O)N[C@H](C(=O)N1CCC[C@H]1C(N)=O)[C@@H](C)O)C(C)C)[C@@H](C)O [Example 53, N-alpha-[(S)-4-Carboxy-4-(19-carboxynonadecanoylamino)butyryl]-[Glu14,Arg17,Pro37]-pramlintide]		0.348	0.287
